Assay results reported in patent publication US5998433A, “Condensed compounds, their production and use” (Takeda Chemical Industries, Ltd., priority 1994, dated 1999).
Where a name gives a salt, the structure may show the parent alone.

Legend:
[1] = system: Candida albicans IFO 0583; assay: Antifungal activity (agar plate dilution method), organism A; format: cell-based; conditions: IFO0583, 35° C., 20 hours, pH 7.0
Protocol: (§1) Determination of Antifungal Activity (Agar Plate Dilution Method)
(§2) RPMI 1640 (Gibco BRL) was dissolved in 0.3 M MOPS buffer, pH 7.0, to obtain a 2-fold dilution; this solution was filtered to remove germ cells (0.45 μm). Separately, 1.4% agar (Wako Pure Chemical Industries) was thermally sterilized (121° C., 15 minutes). This agar was mixed with an equal amount of the above 2-fold diluted RPMI 1640 (0.15 M MOPS, pH 7.0). To 9.9 ml of this RPMI 1640 (0.15 M MOPS, pH 7.0)-0.7% agar medium, 0.1 ml of a 100-fold diluted DMSO solution of the test drug was added; this mixture was prepared as an agar plate in a petri dish 9 cm in diameter. The drug (dissolved in DMSO to 100-fold dilution) was used in a series of 2-fold dilutions of a starting concentration of 64 μg/ml in the agar medium. For drug-free control, an agar medium containing 0.1 ml of DMSO or […] of sterile water was prepared. An inoculum of frozen cells was diluted with physiological saline and spot inoculated onto the agar medium (0.005 ml; 700-15,000 cfu) using a microplanter (Sakuma Seisakusho), followed by cultivation at 35° C. for 20 hours. Antifungal activity was assessed macroscopically; the minimum concentration for complete growth inhibition was expressed as MIC (minimum growth inhibitory concentration).

[2] = system: Candida tropicalis IFO 0587; assay: Antifungal activity (agar plate dilution method), organism B; format: cell-based; conditions: IFO0587, 35° C., 20 hours, pH 7.0
Protocol: as §1, §2

[3] = system: Cholesterogenesis in Rat Liver; assay: Inhibition of cholesterogenesis in rat liver ([14C] acetic acid incorporation); format: in vivo, male Sprague-Dawley rats; conditions: by stomach tube, lower values indicate higher inhibitory activity
Protocol: Inhibition of Cholesterogenesis in Rat Liver
An aqueous solution of the test drug was administered, by a stomach tube, to male Sprague-Dawley rats at 5 weeks of age; 1 hour later, [^14 C] acetic acid was intravenously administered at a dose of 10 μCi per animal. One hour later, the animals were bled, livers were excised and a portion of liver was treated with a chloroform:methanol mixture to extract lipids. After the lipid fraction was saponified, sterol was extracted with petroleum ether, precipitated using digitonin and the radioactivity in the precipitate fraction was determined using a scintillation counter. The control group orally received 0.5% methyl cellulose solution alone.
The results are shown in Table 3 (lower percent control values indicate higher cholesterol synthesis inhibitory activity).

[4] = system: Aspergillus fumigatus IFO 6344; assay: Antifungal activity (agar plate dilution method), organism H; format: cell-based; conditions: IFO6344, 35° C., 20 hours, pH 7.0
Protocol: as §1, §2

[5] = system: Candida glabrata IFO 0622; assay: Antifungal activity (agar plate dilution method), organism D; format: cell-based; conditions: Nakaseomyces glabratus, IFO0622, 35° C., 20 hours, pH 7.0
Protocol: as §1, §2

[6] = system: Aspergillus niger IFO 4414; assay: Antifungal activity (agar plate dilution method), organism I; format: cell-based; conditions: IFO4414, 35° C., 20 hours, pH 7.0
Protocol: as §1, §2

[7] = system: Candida krusei IFO 0584; assay: Antifungal activity (agar plate dilution method), organism E; format: cell-based; conditions: Pichia kudriavzevii, IFO0584, 35° C., 20 hours, pH 7.0
Protocol: as §1, §2

[8] = system: Candida utilis IFO 0619; assay: Antifungal activity (agar plate dilution method), organism G; format: cell-based; conditions: Williopsis jadinii, IFO0619, 35° C., 20 hours, pH 7.0
Protocol: as §1, §2

[9] = system: Candida krusei IFO 1162; assay: Antifungal activity (agar plate dilution method), organism F; format: cell-based; conditions: Pichia kudriavzevii, IFO1162, 35° C., 20 hours, pH 7.0
Protocol: as §1, §2

[10] = system: Candida tropicalis IFO 10241; assay: Antifungal activity (agar plate dilution method), organism C; format: cell-based; conditions: IFO10241, 35° C., 20 hours, pH 7.0
Protocol: as §1, §2

[11] = target: T1, 2,3-oxidosqualene cyclase (Rattus norvegicus, UniProt P48450); assay: Inhibition of 2,3-oxidosqualene cyclase activity (crude rat liver enzyme, lanosterol production, GC/Mass); format: biochemical; conditions: 37° C., 20 minutes, pH 7.5; read-out: Oxidosqualene Cyclase Inhibitory Activity IC50
T1 construct: The supernatant was thus obtained as a crude enzyme solution; from tissue; host or cells: liver of male SD rat, microsome fraction solubilised with n-dodecyl beta-D-maltoside
T1 sequence (P48450 1-733): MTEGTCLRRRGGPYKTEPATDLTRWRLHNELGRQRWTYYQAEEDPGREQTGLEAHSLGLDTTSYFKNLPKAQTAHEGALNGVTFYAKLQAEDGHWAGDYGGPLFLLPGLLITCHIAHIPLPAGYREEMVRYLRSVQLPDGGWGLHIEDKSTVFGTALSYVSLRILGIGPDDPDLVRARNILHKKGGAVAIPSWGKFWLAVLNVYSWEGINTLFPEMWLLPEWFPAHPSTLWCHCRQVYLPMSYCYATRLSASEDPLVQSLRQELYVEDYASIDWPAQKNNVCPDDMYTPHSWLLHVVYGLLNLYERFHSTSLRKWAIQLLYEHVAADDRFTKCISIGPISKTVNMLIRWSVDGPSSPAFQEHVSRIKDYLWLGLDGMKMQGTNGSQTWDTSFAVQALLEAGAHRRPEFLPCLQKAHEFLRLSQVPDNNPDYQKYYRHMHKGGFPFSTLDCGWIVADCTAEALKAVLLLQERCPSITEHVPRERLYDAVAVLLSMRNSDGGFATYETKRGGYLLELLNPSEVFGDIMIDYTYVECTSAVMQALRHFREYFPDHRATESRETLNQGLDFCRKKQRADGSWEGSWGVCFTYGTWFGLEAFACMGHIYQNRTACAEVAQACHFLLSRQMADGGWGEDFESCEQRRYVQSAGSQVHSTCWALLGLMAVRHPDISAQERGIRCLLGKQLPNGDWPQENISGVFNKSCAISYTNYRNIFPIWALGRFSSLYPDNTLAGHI
Protocol: Inhibition of 2,3-oxidosqualene Cyclase Activity
1) Preparation of Crude Rat Enzyme
After a male SD rat (6 weeks of age) was sacrificed by bleeding, the liver was excised. About 50 g of the liver was washed with ice-cold physiological saline and homogenized in 75 ml of ice-cold buffer [100 mM potassium phosphate buffer (pH 7.4), 15 mM nicotinamide, 2 mM MgCl2 ] and centrifuged at 10,000×g for 20 minutes (4° C.). The resulting supernatant was further centrifuged at […] for 90 minutes (4° C.) and the resulting sediment was suspended in ice-cold 100 mM potassium phosphate buffer (pH 7.4), and again centrifuged at 105,000×g for 90 minutes (4° C.). […]
To 200 μl of a reaction mixture containing […] 2,3-oxidosqualene, 50 mM Tris-HCl (pH 7.5), 0.5 mM EDTA, 0.5 mM dithiothreitol, 0.1% Tween 80, 0.25% n-dodecyl β-D-maltoside and the test drug, the crude enzyme (protein content 40 μg) was added and incubated at 37° C. for 20 minutes. […] The resulting lanosterol was quantitated with the cholestane as internal standard (gas chromatograph: Yokogawa-Hewlett-Packard HP-5890J; column: Yokogawa-Hewlett-Packard ULTRA-1, 0.32 mm dia., 0.52μ, 10 m; mass analyzer: JEOL JMS-DX303/DA5000). […]

[12] = system: LDL receptor; assay: Low-density lipoprotein (LDL) receptor-increasing activity in HepG2 cells; format: cell-based, human; conditions: 20 hours, mean ± SD (n = 3)
Protocol: Determination of Low-density Lipoprotein (LDL) Receptor-increasing Activity
Human hepatoma cell line HepG2 was seeded to 96-multiwell plates (10^4 cells/well) and cultured for 5 days in Dulbecco's minimal essential medium (DMEM) medium supplemented with 10% inactivated fetal bovine serum, followed by 20 hours of pretreatment in 100 μl of DMEM medium containing 10% lipoprotein-deficient fetal bovine serum and the test compound. After being washed with Dulbecco's phosphate-buffered saline (PBS), the cells were fixed in 4% formalin at room temperature for 1 hour. Three hundreds μl of PBS containing 3% bovine serum albumin was added; the mixture was kept standing at 5° C. overnight, after which the PBS was replaced with 50 μl of PBS containing both 5 μg/ml anti-LDL receptor monoclonal antibody (Oncogene Science) and 0.5% bovine serum albumin, followed by incubation at room temperature for 2 hours. After the cells were washed with PBS containing both 0.05% Triton X-100 and 0.5% bovine serum albumin (Triton-containing PBS), 50 μl of 400-fold diluted peroxidase-labeled anti-mouse antibody (produced by BIO-RAD) was added, followed by incubation at room temperature for 1 hour. After the cells were washed with Triton-containing PBS, peroxidase activity was determined using a Peroxidase Assay Kit A (Sumitomo Bakelite Co., Ltd.). LDL receptor-inducing activity was calculated by comparing the peroxidase activity with control activity; data were analyzed for significant difference by Student's t-test. Blank determination was performed in the absence of the anti-LDL receptor monoclonal antibody.

MIC [1] | MIC [2] | MIC [4] | MIC [5] | MIC [6] | MIC [7] | MIC [8] | MIC [9] | MIC [10] | SMILES | Cholesterol synthesis in rat liver, % of control ([3]; 30 mg/kg) | IC50 [11] | Cholesterol synthesis in rat liver, % of control ([3]; 0.3 mg/kg) | Cholesterol synthesis in rat liver, % of control ([3]; 1.0 mg/kg) | LDL Receptor Expression (% of Control) ([12]; 0.2 μM) | LDL Receptor Expression (% of Control) ([12]; 2 μM, *p < 0.05) | LDL Receptor Expression (% of Control) ([12]; 20 μM, *p < 0.05)
16 µg/mL | 16 µg/mL | 8 µg/mL | 32 µg/mL | 8 µg/mL | 8 µg/mL | 2 µg/mL | 8 µg/mL | 64 µg/mL | CN(C)Cc1cc2c(o1)CN(C(=O)CCCCCc1ccccc1)CC2 [Example 5, 1-(2-dimethylaminomethyl-5,7-dihydro-4H-furo[2,3-c]pyridin-6-yl)-6-phenylhexan-1-one hydrochloride] | 48.9 % Control | 0.015 µM |  |  |  |  | 
 |  |  |  |  |  |  |  |  | CN(C)Cc1cc2c(o1)CN(C(=O)c1ccc(C(=O)c3ccccc3)cc1)CC2 [Example 11, N,N-dimethyl-[6-(4-benzoylbenzoyl)-4,5,6,7-tetrahydrofuro[2,3-c]pyridin-2-ylmethyl]amine hydrochloride] |  | 0.084 µM | 52.6 % Control | 23.3 % Control | 113.3 ± 10.6 % of Control | 143.1 ± 19.7 % of Control | 148.9 ± 20.5 % of Control
